The test system of this data set is Hepatotoxicity. Kind of data set: Literature-mined public compounds from Greene et al multi-species hepatotoxicity modelling dataset.

In the case of GALLIUM NITRATE HYDRATE, the Hepatotoxicity entry is on record as “NE: No evidence of hepatotoxicity in any species”.

Turning to GENTAMICIN, the Hepatotoxicity entry is recorded as “NE: No evidence of hepatotoxicity in any species”.

As to LACTOSE, ANHYDROUS, the Hepatotoxicity entry was “NE: No evidence of hepatotoxicity in any species”.

As to MERCURIC CHLORIDE, the Hepatotoxicity result is “AH: Evidence for animal hepatotoxicity but not tested in humans”.

Take POTASSIUM DICHROMATE: the Hepatotoxicity result is recorded as “AH: Evidence for animal hepatotoxicity but not tested in humans”.

As for TRANSPLATIN, the Hepatotoxicity entry is reported as “AH: Evidence for animal hepatotoxicity but not tested in humans”.

Source of the values: ChEMBL document CHEMBL1697692, “Developing structure-activity relationships for the prediction of hepatotoxicity” (Chem Res Toxicol, 2010).
